Literature values, collected in patent publication US20070148074A1, “Nanoparticle based stabilization of ir fluorescent dyes” (priority 2003, published 2007).

Key:
[1] = human body, administered intravenously

elimination half-life [1]: 2 to 4 min
fraction of dye in plasma that is protein-bound: ~95%
SMILES: CC1(C)C(/C=C/C=C/C=C/C=C2\N(CCCCS(=O)(=O)O)c3ccc4ccccc4c3C2(C)C)=[N+](CCCCS(=O)(=O)[O-])c2ccc3ccccc3c21 [ICG, indocyanine green]
